Literature values as cited in patent US6476042B1, “Combination therapy for the treatment of migraine” (Pfizer Inc., priority 1999, dated 2002).

System: carotid vascular resistance
Conditions: anaesthetized dog

SMILES: CNS(=O)(=O)Cc1ccc2[nH]cc(CCN(C)C)c2c1 [Sumatriptan, sumatriptan]
- effect on carotid vascular resistance: selective increase
